Values joined by “and” are separate entries in the source; they are usually repeats but may differ in a detail not shown here. Equal values may be shown once.
Key:
p21/Ki67 = test: MatTek PSE culture system, ratio of p21 to Ki67 mRNA levels; type: cell-based, human; details: after two days of treatment; treatment compositions of Table 5
Protocol: Ki67 is a replication marker for cells and the lower the value, the lower the replication rate. P21 is a protein which is a marker for the inhibition of cell proliferation. Thus, an increased ratio of P21/Ki67 indicates decreased cell replication. FIG. 9 illustrates this ratio under several conditions as described in Example 2.
(§1) Other markers of cell proliferation were also measured, namely (protein p21), and four markers of inflammatory signaling (IL17A, IL23A, TNF-α, and transforming growth factor beta (TGF-β)) in the MatTek PSE culture system after two days of treatment were also determined. Ki67 is a nuclear protein and a replication marker. The marker levels were determined by isolating total RNA by a Promega SV96 Total RNA Isolation Vacuum System (Promega, Madison, WI) according to the manufacturer's instructions. The total RNA was reverse transcribed using an ABI High Capacity cDNA reverse transcription kit (Applied Biosystems, Foster City, CA). Quantitative real-time polymerase chain reaction (qPCR) was performed with the use of a SYBR Green PCR Master Mix (Applied Biosystems) according to the manufacturer's protocol and amplified on a StepOnePlus Real-Time PCR System.
To highlight effects on cell proliferation, the ratio of p21 to Ki67 mRNA levels were calculated, with the results being shown in FIG. 9.

TGF-β = test: MatTek PSE culture system, TGF-β mRNA by qPCR; type: cell-based, human; details: after two days of treatment
Protocol: as §1

IL23A = test: MatTek PSE culture system, IL23A mRNA by qPCR; type: cell-based, human; details: after two days of treatment
Protocol: as §1

HaCaT cells = test: M5 cocktail psoriasis-like HaCaT keratinocyte model, live and dead cell numbers by MultiTox-Glo Multiplex Cytotoxicity Assay; details: for Cell Counts, 0 hours, Dead / Cell Counts, 0 hours, Live / Cell Ratios, 0 hours, Dead / Cell Ratios, 0 hours, Total: 0 hours (baseline); for Cell Counts, 0 hours, Dead / Cell Counts, 0 hours, Live / Cell Counts, 48 hours, Dead / Cell Counts, 48 hours, Total / Cell Counts, 72 hours, Dead / Cell Counts, 72 hours, Total: M5 cocktail, ± standard deviation; for Cell Ratios, 0 hours, Dead / Cell Ratios, 0 hours, Total / Cell Ratios, 48 hours, Dead / Cell Ratios, 48 hours, Total / Cell Ratios, 72 hours, Dead / Cell Ratios, 72 hours, Total: relative to 9177 live cells at zero hours
Protocol: Immortalized human keratinocytes (HaCaT cells) purchased from AddexBio (San Diego, CA) were maintained in vitro in Dulbecco's modified Eagle's medium (DMEM) supplemented with 10% Fetal Bovine Serum (FBS) and antibiotics (100 U/mL penicillin and […] streptomycin) and cultured in an incubator with 5% CO2 at 37° C.
HaCaT cells were seeded at approximately 50% density (1×10^4 cells/well) and after 16 h the medium was replaced with 50 μL of pre-treatment medium containing different concentrations of allopurinol (0, 0.5, or 3 mM) or methotrexate (1 μM) and placed back into the incubator. Treatment media was prepared using standard media containing vehicle control (PBS) or M5 cocktail.
Other HaCaT cells were incubated in vitro for 72 hours in the presence of a M5 composition that also included 1.0 μM methotrexate, 0.5 mM allopurinol, 3.0 mM allopurinol, 0.5 mM oxypurinol, or 3.0 mM oxypurinol.
The number of live and dead cells were determined by the MultiTox-Glo Multiplex Cytotoxicity Assay (Promega, Madison WI) according to the manufacturer's protocol. A dilution series of cells was used to generate a standard curve for calculation of cell number in each well. The total number of cells was the sum of the live and dead cells.

[1] = tested on: MatTek human PSE culture system (SOR-300-FT); test: MatTek human PSE culture system, tissue layer thickness and histology
From the text: The thickness of each of the three tissue layers of skin was monitored and measured after two days and after six days of exposure to the treatment medium in a blinded fashion by a board-certified and nationally respected pathologist.

psoriasis [2] = details: oral administration; double-blind cross-over study, Feuerman et al. 1973; cited from earlier work
TNF-α = test: MatTek PSE culture system, TNF-α mRNA by qPCR; type: cell-based, human; details: after two days of treatment
Protocol: as §1

psoriasis [3] = details: Viglioglia et al. 1970; cited from earlier work
Ki67 = test: MatTek PSE culture system, Ki67 level by PCR; type: cell-based, human; details: for Relative Ki67 Level: Day 6, normalized to control at Day 0 = 1.0; for Relative Expression Levels, Ki67: after two days of treatment
Protocol: The level of Ki67 in the MatTek tissue culture system was also determined. Ki67 is a nuclear protein and a replication marker. The level of Ki67 was determined by polymerase chain reaction (PCR) analysis with standard protocols. The relative levels are normalized with respect to the measured Ki67 level of the control at Day 0, which is adjusted to 1.0.
as §1

hand-foot syndrome = details: topical; prevention of hand-foot syndrome; trial by Rodemer; cited from earlier work
p21 = test: MatTek PSE culture system, p21 mRNA by qPCR; type: cell-based, human; details: after two days of treatment
Protocol: as §1

IL17A = test: MatTek PSE culture system, IL17A mRNA by qPCR; type: cell-based, human; details: after two days of treatment
Protocol: as §1

## Oc1ncnc2[nH]ncc12 [allopurinol]
p21/Ki67
  p21/Ki67 ratio (mRNA levels): markedly increased
TGF-β; 0.5 mM
  Relative Expression Levels, TGF-β: 0.90 ± 0.09
TGF-β; 3 mM
  Relative Expression Levels, TGF-β: 0.60 ± 0.12
IL23A; 0.5 mM
  Relative Expression Levels, IL23A: 0.95 ± 0.20
IL23A; 3 mM
  Relative Expression Levels, IL23A: 0.66 ± 0.17
HaCaT cells; 0.5 mM
  Cell Counts, 0 hours, Dead: 801 ± 19
  Cell Counts, 0 hours, Live: 9177 ± 90
  Cell Ratios, 0 hours, Dead: 0.087
  Cell Ratios, 0 hours, Total: 1.087
  Cell Counts, 48 hours, Dead: 2319 ± 141
  Cell Counts, 48 hours, Total: 11705 ± 161
  Cell Ratios, 48 hours, Dead: 0.253
  Cell Ratios, 48 hours, Total: 1.275
  Cell Counts, 72 hours, Dead: 4024 ± 166
  Cell Counts, 72 hours, Total: 13428 ± 216
  Cell Ratios, 72 hours, Dead: 0.44 and 0.438
  Cell Ratios, 72 hours, Total: 1.46 and 1.463
HaCaT cells; 3.0 mM
  Cell Counts, 0 hours, Dead: 801 ± 19
  Cell Counts, 0 hours, Live: 9177 ± 90
  Cell Ratios, 0 hours, Dead: 0.087
  Cell Ratios, 0 hours, Total: 1.087
  Cell Counts, 48 hours, Dead: 1275 ± 117
  Cell Counts, 48 hours, Total: 9038 ± 176
  Cell Ratios, 48 hours, Dead: 0.139
  Cell Ratios, 48 hours, Total: 0.985
  Cell Counts, 72 hours, Dead: 2004 ± 168
  Cell Counts, 72 hours, Total: 9367 ± 280
  Cell Ratios, 72 hours, Dead: 0.22 and 0.218
  Cell Ratios, 72 hours, Total: 1.02 and 1.021
[1]; 0.5 mM, 2 days
  Layer Thickness, Dermis: 0.4 mm
  Layer Thickness, Epidermis: 0.1 mm
  Layer Thickness, Stratum Corneum: 0.05 mm
[1]; 0.5 mM, 6 days
  Layer Thickness, Dermis: 0.25 mm
  Layer Thickness, Epidermis: 0.1 mm
  Layer Thickness, Stratum Corneum: 0.05 mm
[1]; 3.0 mM allopurinol alone
  increase in dermis layer thickness from treatment for 2 days to 6 days: 1.4 fold
[1]; 3 mM, 2 days
  Layer Thickness, Dermis: 0.25 mm
  Layer Thickness, Epidermis: 0.1 mm
  Layer Thickness, Stratum Corneum: 0.02 mm
[1]; 3 mM, 6 days
  Layer Thickness, Dermis: 0.35 mm
  Layer Thickness, Epidermis: 0.15 mm
  Layer Thickness, Stratum Corneum: 0.1 mm
Psoriasis [2]
  improvement in psoriasis versus placebo: no improvement over a placebo
TNF-α; 0.5 mM
  Relative Expression Levels, TNF-α: 0.75 ± 0.13
TNF-α; 3 mM
  Relative Expression Levels, TNF-α: 0.82 ± 0.19
Psoriasis [3]
  cases with excellent results: 50%
  cases with good results: 34%
  cases with moderate results: 16%
Ki67; 0.5 mM
  Relative Ki67 Level: 3.18
  Relative Expression Levels, Ki67: 0.27 ± 0.01
Ki67; 3 mM
  Relative Ki67 Level: 0.96
  Relative Expression Levels, Ki67: 0.42 ± 0.09
hand-foot syndrome
  clinical efficacy endpoint: did not meet its clinical efficacy endpoint
p21; 0.5 mM
  Relative Expression Levels, p21: 1.27 ± 0.10
p21; 3 mM
  Relative Expression Levels, p21: 1.40 ± 0.17
IL17A; 0.5 mM
  Relative Expression Levels, IL17A: 0.21 ± 0.07
IL17A; 3 mM
  Relative Expression Levels, IL17A: 0.09 ± 0.04
